The results in this text go back to ChEMBL document CHEMBL5506043, “A β-Carboline Derivate PAD4 Inhibitor Reshapes Neutrophil Phenotype and Improves the Tumor Immune Microenvironment against Triple-Negative Breast Cancer” (J Med Chem, 2024).

The test system of series [1] is 4T1. In words: Upregulation of feedback regulation-mediated PAD4 protein expression in mouse 4T1 cells at 0.5 to 2 uM measured after 48 hrs by immunoblot analysis. Type of series: functional, cell-based. To be noted: dose 0.5-2 µM.
A short description of series [2]: Cmax in male Sprague-Dawley rat at 3.5 mg/kg, iv by LC-MS/MS analysis. It is filed as ADME, organism-based. To be noted: in vivo.
Series [3] relates to Mus musculus. The experiment in a line: Induction of tumor microenvironment in female BALB/c mouse implanted with mouse orthotopic 4T1-Luc cells assessed as downregulation of myeloid derived suppressive G-MDSC cells at 1 to 10 mg/kg, iv administered via tail vein every 2 days for 9 times for 17 days by single-cell mass spectrometry flow cytometry analysis. The settings on record: dose 1-10 mg/kg, time 17.0 day. It is filed as functional, organism-based. A general note: In flow cytometry, cells or beads pass a laser one at a time.

Series [4] addresses Protein-arginine deiminase type-4 (Mus musculus) (UniProt Q9Z183). In words: Inhibition of PAD4 in BALB/c mouse bone marrow neutrophils assessed as reduction in histone H3 citrullination at 2 uM preincubated for 2 hrs followed by calcium ionophore A23187 addition and measured after 2 hrs by Hoechst 33342/Ly6G staining based laser confocal microscopic analysis. The settings on record: Neutrophil, time 4.0 hrs.

For series [5], the system named is Mus musculus. In words: Induction of tumor microenvironment in female BALB/c mouse implanted with mouse orthotopic 4T1-Luc cells assessed as decrease in proportion of MHC-II-negative tumor-associated neutrophils at 1 to 10 mg/kg, iv administered via tail vein every 2 days for 9 times for 17 days by single-cell mass spectrometry flow cytometry analysis. Type of series: functional, organism-based. The settings on record: dose 1-10 mg/kg, time 17.0 day.

Series [6] relates to 4T1-Luc. The experiment in a line: Antimetastatic activity against mouse orthotopic 4T1-Luc cells implanted in iv dosed female BALB/c mouse assessed as reduction in lung metastasis administered via tail vein every 2 days for 9 times for 17 days by IVIS live cell imaging analysis. Type of series: functional, organism-based. The settings on record: dose 1-10 mg/kg, time 17.0 day.

For series [7], the target named is Protein-arginine deiminase type-4 (Mus musculus) (UniProt Q9Z183). In words: Inhibition of PAD4 in BALB/c mouse bone marrow neutrophils assessed as reduction in neutrophil extracellular traps formation at 2 uM preincubated for 2 hrs followed by calcium ionophore A23187 addition and measured after 2 hrs by Hoechst 33342/Ly6G staining based laser confocal microscopic analysis. Type of series: tissue-based. To be noted: time 4.0 hrs.

In series [8] the test system is Mus musculus. In words: Induction of tumor microenvironment in female BALB/c mouse implanted with mouse orthotopic 4T1-Luc cells assessed as increase in proportion of MHC-II-positive tumor-associated neutrophils at 1 to 10 mg/kg, iv administered via tail vein every 2 days for 9 times for 17 days by single-cell mass spectrometry flow cytometry analysis. It is filed as functional, organism-based. To be noted: dose 1-10 mg/kg, time 17.0 day.

A short description of series [9]: AUC (0 to infinity) in male Sprague-Dawley rat at 3.5 mg/kg, iv by LC-MS/MS analysis. To be noted: in vivo. It is filed as ADME, organism-based.
Series [10] relates to 4T1-Luc. The experiment in a line: Antitumor activity against mouse orthotopic 4T1-Luc cells implanted in iv dosed female BALB/c mouse assessed as reduction in tumor weight administered via tail vein every 2 days for 9 times for 17 days and measured every 2 days. It is filed as functional, organism-based. The settings on record: dose 1-10 mg/kg, time 17.0 day.
The subject of series [11] is Mus musculus. In words: Induction of tumor microenvironment in female BALB/c mouse implanted with mouse orthotopic 4T1-Luc cells assessed as increase in MHC-II expression for MHC-II-negative tumor-associated neutrophils at 1 to 10 mg/kg, iv administered via tail vein every 2 days for 9 times for 17 days. It is filed as functional, organism-based. The settings on record: dose 1-10 mg/kg, time 17.0 day.

Series [12] concerns Mus musculus. In words: Induction of tumor microenvironment in female BALB/c mouse implanted with mouse orthotopic 4T1-Luc cells assessed as m1 macrophage polarization by measuring upregulation of conventional dendritic cells at 1 to 10 mg/kg, iv administered via tail vein every 2 days for 9 times for 17 days by single-cell mass spectrometry flow cytometry analysis. Type of series: functional, organism-based. The settings on record: dose 1-10 mg/kg, time 17.0 day.

Series [13] in a line: Terminal half life in male Sprague-Dawley rat at 3.5 mg/kg, iv by LC-MS/MS analysis. It is filed as ADME, organism-based. The settings on record: in vivo.
In series [14] the test system is MDA-MB-468. The experiment in a line: Antiproliferative activity against human MDA-MB-468 cells assessed as inhibition of cell growth incubated for 48 hrs by MTT assay. It is filed as functional, cell-based. To be noted: MDA-MB-468, 48 h. A general note: Formazan colour is commonly taken as a measure of viable cells.
The test system of series [15] is 4T1-Luc. In words: Antitumor activity against mouse orthotopic 4T1-Luc cells implanted in female BALB/c mouse assessed as increase in neutrophil infiltration in tumor at 10 mg/kg, iv administered via tail vein every 2 days for 9 times for 17 days by immunohistochemical staining based analysis. The settings on record: time 17.0 day. Type of series: functional, organism-based.

In series [16] the test system is 4T1. The experiment in a line: Antiproliferative activity against mouse 4T1 cells assessed as inhibition of cell growth incubated for 48 hrs by MTT assay. Type of series: functional, cell-based. To be noted: 4T1, 48 h.
Series [17] is described as follows: Tmax in male Sprague-Dawley rat at 3.5 mg/kg, iv by LC-MS/MS analysis. Type of series: ADME, organism-based. To be noted: in vivo.
For series [18], the system named is Mus musculus. The experiment in a line: Induction of tumor microenvironment in female BALB/c mouse implanted with mouse orthotopic 4T1-Luc cells assessed as decrease in proportion of PD-L1-positive/MHC-II-positive tumor-associated neutrophils at 1 to 10 mg/kg, iv administered via tail vein every 2 days for 9 times for 17 days by single-cell mass spectrometry flow cytometry analysis. It is filed as functional, organism-based. The settings on record: dose 1-10 mg/kg, time 17.0 day.

For series [19], the system named is 4T1-Luc. In words: Antitumor activity against mouse orthotopic 4T1-Luc cells implanted in iv dosed female BALB/c mouse assessed as inhibition of tumor growth administered via tail vein every 2 days for 9 times for 17 days and measured every 2 days by IVIS live cell imaging analysis. It is filed as functional, organism-based. To be noted: dose 1-10 mg/kg, time 17.0 day.

Molecules are shown by their SMILES. The source made the active and inactive calls. The calls are words filed in the database; no cut-off is given here.

Chain of Protein-arginine deiminase type-4 (Mus musculus) (Q9Z183 whole entry): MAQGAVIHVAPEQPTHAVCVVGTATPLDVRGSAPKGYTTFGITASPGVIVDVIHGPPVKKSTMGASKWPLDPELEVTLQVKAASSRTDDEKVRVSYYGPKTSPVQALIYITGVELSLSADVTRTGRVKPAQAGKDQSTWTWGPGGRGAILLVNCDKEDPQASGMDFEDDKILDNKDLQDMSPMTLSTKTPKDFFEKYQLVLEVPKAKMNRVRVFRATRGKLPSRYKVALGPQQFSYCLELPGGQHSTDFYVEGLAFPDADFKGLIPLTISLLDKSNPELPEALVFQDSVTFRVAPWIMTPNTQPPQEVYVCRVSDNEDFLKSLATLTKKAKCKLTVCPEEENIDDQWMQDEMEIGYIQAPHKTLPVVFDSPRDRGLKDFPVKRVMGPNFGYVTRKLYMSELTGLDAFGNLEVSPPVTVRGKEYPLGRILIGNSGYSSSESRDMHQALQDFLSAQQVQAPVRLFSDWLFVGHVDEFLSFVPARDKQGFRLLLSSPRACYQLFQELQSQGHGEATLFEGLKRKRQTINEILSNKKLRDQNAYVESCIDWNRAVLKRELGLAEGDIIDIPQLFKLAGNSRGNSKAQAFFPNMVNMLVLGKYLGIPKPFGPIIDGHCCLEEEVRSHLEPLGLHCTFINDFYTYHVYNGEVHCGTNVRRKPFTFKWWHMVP

With `N=C(CCl)NCCC[C@H](NC(=O)c1cc2c([nH]c3ccccc32)c(-c2ccccc2)n1)C(=O)NCc1ccccc1`, the result in series [1], in series [3], in [5], in series [8], in series [11] and in [12] was Active. The result in series [15] and in series [18] was Active. In addition, the Cmax (commonly the highest concentration seen after dosing) in [2] is 297.71 ng/mL. Besides, the inhibition result in series [4] and in series [7] was “Active” each time. Moreover, the Activity result in series [6], in [10] and in series [19] was “Dose-Dependent Effect” each time. Further, the AUC (usually concentration integrated over time) in series [9] was found to be 17346.55 ng·h/mL. Moreover, in [13], the “beta t1/2” value is 15 min. Besides, the IC50 (in general, the concentration at which inhibition is half-maximal) worked out at 2340 nM in [14] and 2390 nM in series [16]. In addition, the Tmax (as a rule, the time at which the peak concentration occurs) in [17] is 4.8 min.
